The results in this text go back to ChEMBL document CHEMBL6121002, “Discovery of novel bicyclic and tricyclic cyclohepta[b]thiophene derivatives as multipotent AChE and BChE inhibitors, in-Vivo and in-Vitro assays, ADMET and molecular docking simulation” (Eur J Med Chem, 2025).

Assay [1] has as its system Rattus norvegicus. Put plainly: Antialzheimer activity in AlCl3-induced learning and memory impairment in Sprague-Dawley rat assessed as fold decrease in AChE level in brain tissue at 30 mg/kg, po measured after 5 weeks by fluorometric analysis relative to control. It is filed as functional.
Another assay addresses Acetylcholinesterase (Homo sapiens, UniProt P22303). Put plainly: Inhibition of AChE (unknown origin) incubated for 40 mins in presence of substrate.
The subject of assay [2] is Rattus norvegicus. Description: Antialzheimer activity in AlCl3-induced learning and memory impairment in Sprague-Dawley rat assessed as time taken for learning at 30 mg/kg, po measured after 5 weeks by MWM test (reference value: 53.67 +/- 1.05 sec). Type of assay: functional.
Assay [3] concerns Rattus norvegicus. Description: Antialzheimer activity in AlCl3-induced learning and memory impairment in Sprague-Dawley rat assessed as reduction in escape latency time at 30 mg/kg, po measured after 5 weeks by MWM test relative to control. Type of assay: functional. Also noted: scale not given: the % may be the effect or the level left.
Assay [4] is described as follows: Selectivity index, ratio of IC50 for BChE (unknown origin) using butyrylthiocholine iodide as substrate to IC50 for AChE (unknown origin).
Assay [5] deals with Rattus norvegicus. Put plainly: Antialzheimer activity in AlCl3-induced learning and memory impairment in Sprague-Dawley rat assessed as fold increase in dopamine level in brain tissue at 30 mg/kg, po measured after 5 weeks by fluorometric analysis relative to control. It is filed as functional.
Assay [6] deals with Rattus norvegicus. Description: Antialzheimer activity in AlCl3-induced learning and memory impairment in Sprague-Dawley rat assessed as fold increase in time spent in target quadrant at 30 mg/kg, po measured after 5 weeks by […] relative to control. It is filed as functional.
In assay [7] the test system is Rattus norvegicus. Description: Antialzheimer activity in AlCl3-induced learning and memory impairment in Sprague-Dawley rat assessed as time taken for memory at 30 mg/kg, po measured after 5 weeks by MWM test (reference value: 6.833 +/- 0.79 sec). It is filed as functional.
In assay [8] the test system is Rattus norvegicus. Description: Antialzheimer activity in AlCl3-induced learning and memory impairment in Sprague-Dawley rat assessed as fold increase in norepinephrine level in brain tissue at 30 mg/kg, po measured after 5 weeks by fluorometric analysis relative to control. Type of assay: functional.
Assay [9] relates to Rattus norvegicus. Put plainly: Antialzheimer activity in AlCl3-induced learning and memory impairment in Sprague-Dawley rat assessed as reduction in TNF-alpha level in brain tissue at 30 mg/kg, po measured after 5 weeks by ELISA relative to control. Type of assay: functional. Also noted: scale not given: the % may be the effect or the level left.
Assay [10] has as its system Rattus norvegicus. Put plainly: Antialzheimer activity in AlCl3-induced learning and memory impairment in Sprague-Dawley rat assessed as increase in time spent in target quadrant at 30 mg/kg, po measured after 5 weeks by […]. It is filed as functional, organism-based.
The target of the next assay is Cholinesterase (Homo sapiens, UniProt P06276). Description: Inhibition of BChE (unknown origin) using butyrylthiocholine iodide as substrate incubated for 20 mins by fluorescence based assay.
The subject of assay [11] is Rattus norvegicus. Put plainly: Antialzheimer activity in AlCl3-induced learning and memory impairment in Sprague-Dawley rat assessed as spontaneous alternation at 30 mg/kg, po measured after 5 weeks by Y-maze test (reference value: 50 +/- 2.89 %). Type of assay: functional.
For assay [12], the system named is Rattus norvegicus. Description: Antialzheimer activity in AlCl3-induced learning and memory impairment in Sprague-Dawley rat assessed as fold increase in 5-HT level in brain tissue at 30 mg/kg, po measured after 5 weeks by fluorometric analysis relative to control. It is filed as functional.

Structures are written as SMILES. Active and inactive are the calls of the source. The calls are words filed in the database; no cut-off is given here.

Cholinesterase, sequence (P06276 whole entry): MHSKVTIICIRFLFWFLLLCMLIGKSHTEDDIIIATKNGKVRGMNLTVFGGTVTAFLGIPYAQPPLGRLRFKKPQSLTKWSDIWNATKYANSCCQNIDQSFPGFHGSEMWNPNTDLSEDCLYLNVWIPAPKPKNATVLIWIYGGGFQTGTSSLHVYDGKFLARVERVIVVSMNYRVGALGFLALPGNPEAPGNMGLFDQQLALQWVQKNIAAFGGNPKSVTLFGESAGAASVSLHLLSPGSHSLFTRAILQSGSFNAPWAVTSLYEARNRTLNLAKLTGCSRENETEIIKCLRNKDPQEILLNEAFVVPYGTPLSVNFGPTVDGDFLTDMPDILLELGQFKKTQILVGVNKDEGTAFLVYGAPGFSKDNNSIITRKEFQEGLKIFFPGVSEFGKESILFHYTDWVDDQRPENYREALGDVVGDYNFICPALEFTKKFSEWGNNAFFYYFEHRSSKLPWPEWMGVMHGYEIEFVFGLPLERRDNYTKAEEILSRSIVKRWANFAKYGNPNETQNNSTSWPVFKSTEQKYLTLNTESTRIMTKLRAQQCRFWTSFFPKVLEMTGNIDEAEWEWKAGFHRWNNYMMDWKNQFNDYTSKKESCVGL
Acetylcholinesterase, sequence (P22303 whole entry): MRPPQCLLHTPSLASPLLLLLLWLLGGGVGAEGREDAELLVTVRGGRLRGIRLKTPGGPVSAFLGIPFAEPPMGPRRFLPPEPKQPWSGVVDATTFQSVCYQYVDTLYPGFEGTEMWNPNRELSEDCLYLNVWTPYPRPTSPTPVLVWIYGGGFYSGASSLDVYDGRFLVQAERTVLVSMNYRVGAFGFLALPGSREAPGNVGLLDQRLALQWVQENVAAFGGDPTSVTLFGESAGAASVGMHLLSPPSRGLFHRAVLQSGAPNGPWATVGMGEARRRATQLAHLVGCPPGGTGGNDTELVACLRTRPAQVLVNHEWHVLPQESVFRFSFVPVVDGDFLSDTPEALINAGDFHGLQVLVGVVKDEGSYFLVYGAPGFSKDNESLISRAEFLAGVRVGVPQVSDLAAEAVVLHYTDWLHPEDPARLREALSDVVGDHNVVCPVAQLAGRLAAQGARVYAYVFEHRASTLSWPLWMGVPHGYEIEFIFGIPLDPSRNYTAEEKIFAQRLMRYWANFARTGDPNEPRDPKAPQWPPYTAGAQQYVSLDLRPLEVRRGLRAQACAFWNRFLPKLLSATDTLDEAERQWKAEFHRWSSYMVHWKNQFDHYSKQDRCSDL

One may read the IC50 as the concentration needed to halve the response being measured. Regarding `COc1ccc(N2C(=O)c3c(sc4c3CCCCC4)OC2c2ccccc2)cc1` (stereo not drawn), the “fold change (FC)” value with Rattus norvegicus [1] was 2.3; with Rattus norvegicus [5], 3.5; with Rattus norvegicus [6], 5.6; in the assay on Rattus norvegicus [8], 1.7. Further, the IC50 on Acetylcholinesterase amounted to 4.05 µM; against Cholinesterase, 11 µM. The Time with Rattus norvegicus [2] turned out to be 23 s; in the assay with Rattus norvegicus [7] it was 38.17 s. Also, the Activity result is “<=43%” in the assay with Rattus norvegicus [3], 62.6% in the assay on Rattus norvegicus [9] and 74.33% in the assay on Rattus norvegicus [11]. In assay [4], the Ratio IC50 was 2.73. Moreover, the result with Rattus norvegicus [10] was Active.
Turning to `O=C1c2c(sc3c2CCCCC3)OC(c2ccccc2)N1c1ccccc1` (stereo not drawn), the “fold change (FC)” value was 3.5 with Rattus norvegicus [1]; 3.8 in the assay on Rattus norvegicus [5]; 4.5 with Rattus norvegicus [12]; 5.3 in the assay on Rattus norvegicus [6]; 2.2 in the assay with Rattus norvegicus [8]. Besides, the IC50 at Acetylcholinesterase came to 0.51 µM; at Cholinesterase, 2.48 µM. Besides, the Time in the assay on Rattus norvegicus [2] was found to be 17 s; with Rattus norvegicus [7], 35.83 s. For the same compound, the results for the Activity in the assay with Rattus norvegicus [3], with Rattus norvegicus [9] and in the assay on Rattus norvegicus [11] were 32%, 61.2% and 80%, respectively. The Ratio IC50 in [4] stood at 4.86. Further, in the assay on Rattus norvegicus [10], the result was Active.
In the case of `O=C1c2c(sc3c2CCCCC3)OC(c2ccc(Cl)cc2)N1c1ccccc1` (stereo not drawn), the “fold change (FC)” value with Rattus norvegicus [1] was determined as 2.3; in the assay on Rattus norvegicus [5], 1.7; with Rattus norvegicus [6] it was 5.4; with Rattus norvegicus [8], 1.7. Also, the figures for the IC50 on Acetylcholinesterase and against Cholinesterase were 0.55 µM and 6.9 µM, respectively. For the same compound, the Time was found to be 24.67 s in the assay with Rattus norvegicus [2] and 36.83 s in the assay with Rattus norvegicus [7]. Further, the Activity result with Rattus norvegicus [3] is on record as “<=46%”; in the assay with Rattus norvegicus [9], 54.6%; in the assay with Rattus norvegicus [11], 73.83%. Further, in assay [4], the Ratio IC50 was 12.6. In the assay with Rattus norvegicus [10], the result was Active.
In the case of `COc1cc2c(cc1OC)C(=O)C(CC1CCN(Cc3ccccc3)CC1)C2` (stereo not drawn) [DONEPEZIL], the Time in the assay on Rattus norvegicus [2] amounted to 14.78 s; in the assay on Rattus norvegicus [7], 42.67 s. The Activity in the assay with Rattus norvegicus [3] is 28%; in the assay with Rattus norvegicus [9] it was 63%; in the assay with Rattus norvegicus [11], 85%. Besides, the result in the assay on Rattus norvegicus [10] was Active.
Turning to `CCOC(=O)c1c(OC(=O)c2ccc(Cl)cc2)sc2c1CCCCC2`, the figures for the IC50 on Acetylcholinesterase and on Cholinesterase were 1.05 µM and 2.9 µM, respectively. Also, the Time is on record as 34 s in the assay on Rattus norvegicus [2] and 27.67 s in the assay with Rattus norvegicus [7]. For the same compound, the Ratio IC50 in assay [4] was 2.76. Besides, in the assay with Rattus norvegicus [5], the “fold change (FC)” value is recorded as 1.7. Also, the results for the Activity in the assay on Rattus norvegicus [9] and with Rattus norvegicus [11] were 49.2% and 70.67%, respectively. Further, in the assay with Rattus norvegicus [10], the result was Active.
For `COc1ccc(N2C(=O)c3c(sc4c3CCCCC4)OC2c2ccc(Cl)cc2)cc1` (stereo not drawn), the IC50 at Acetylcholinesterase came to 3.14 µM; against Cholinesterase, 7.76 µM. The results for the Time in the assay on Rattus norvegicus [2] and with Rattus norvegicus [7] were 16.33 s and 41.67 s, respectively. Further, the Activity with Rattus norvegicus [3] is recorded as 30%; with Rattus norvegicus [9], 70.8%; in the assay with Rattus norvegicus [11] it was 85%. Moreover, the Ratio IC50 in assay [4] is 2.47. The “fold change (FC)” value with Rattus norvegicus [5] was 3.8; with Rattus norvegicus [12], 5.1; in the assay with Rattus norvegicus [6], 5.9; with Rattus norvegicus [8], 2.9. Moreover, the outcome in the assay with Rattus norvegicus [10] was Active.
In the case of `CCOC(=O)c1c(OC(=O)c2ccccc2)sc2c1CCCCC2`, the IC50 on Acetylcholinesterase was determined as 2.16 µM; against Cholinesterase it was 7.5 µM. For the same compound, the values for the Time in the assay with Rattus norvegicus [2] and in the assay with Rattus norvegicus [7] were 37 s and 24.17 s, respectively. Also, the Ratio IC50 in assay [4] is 3.47. In addition, in the assay on Rattus norvegicus [5], the “fold change (FC)” value stood at 1.7. Moreover, the Activity in the assay on Rattus norvegicus [9] came out at 43.8%; with Rattus norvegicus [11], 63.5%. In the assay on Rattus norvegicus [10], the outcome was Active.
In the case of `O=C1c2c(sc3c2CCCCC3)OC(c2ccccc2)N1c1ccc(Cl)cc1` (stereo not drawn), the “fold change (FC)” value in the assay on Rattus norvegicus [1] was 2.3; with Rattus norvegicus [5], 1.7; in the assay with Rattus norvegicus [6], 5.2; in the assay with Rattus norvegicus [8] it was 1.7. Further, the IC50 was found to be 9.48 µM at Acetylcholinesterase and 24.7 µM at Cholinesterase. For the same compound, the Time in the assay on Rattus norvegicus [2] is 25.67 s; in the assay with Rattus norvegicus [7], 35.5 s. Further, the Activity result in the assay with Rattus norvegicus [3] is recorded as “<=47%”; with Rattus norvegicus [9] it was 54.5%; in the assay on Rattus norvegicus [11] it was 71.5%. Moreover, in assay [4], the Ratio IC50 is 2.6. Besides, in the assay on Rattus norvegicus [10], the result was Active.
Turning to `O=C1c2c(sc3c2CCCCC3)OC(c2ccc(Cl)cc2)N1c1ccc(Cl)cc1` (stereo not drawn), the IC50 on Acetylcholinesterase came to 12.6 µM; against Cholinesterase, 308 µM. Further, the Time with Rattus norvegicus [2] is 11.83 s; with Rattus norvegicus [7], 46.5 s. The Activity with Rattus norvegicus [3] stood at 22%; with Rattus norvegicus [9] it was 73.9%; in the assay on Rattus norvegicus [11], 83.33%. For the same compound, in [4], the Ratio IC50 worked out at 24.4. Besides, the “fold change (FC)” value in the assay on Rattus norvegicus [5] is reported as 4.2; in the assay on Rattus norvegicus [12] it was 5.8; with Rattus norvegicus [6], 6.5; in the assay on Rattus norvegicus [8] it was around 3.2. Further, the outcome in the assay with Rattus norvegicus [10] was Active.
